Target: human orexin type 2 receptor (hOX2R) (Homo sapiens (Human), UniProt O43614)
Experiment: Measurement of orexin type 2 receptor agonist activity (Experimental Example 2-1, FLIPR TETRA, intracellular Ca2+)
Type: cell-based
Conditions: CHO dhfr- cells expressing hOX2R, FLIPR TETRA, Fluo-4AM; for Emax: read-out: Emax (%)

human orexin type 2 receptor (hOX2R), sequence (O43614 whole entry): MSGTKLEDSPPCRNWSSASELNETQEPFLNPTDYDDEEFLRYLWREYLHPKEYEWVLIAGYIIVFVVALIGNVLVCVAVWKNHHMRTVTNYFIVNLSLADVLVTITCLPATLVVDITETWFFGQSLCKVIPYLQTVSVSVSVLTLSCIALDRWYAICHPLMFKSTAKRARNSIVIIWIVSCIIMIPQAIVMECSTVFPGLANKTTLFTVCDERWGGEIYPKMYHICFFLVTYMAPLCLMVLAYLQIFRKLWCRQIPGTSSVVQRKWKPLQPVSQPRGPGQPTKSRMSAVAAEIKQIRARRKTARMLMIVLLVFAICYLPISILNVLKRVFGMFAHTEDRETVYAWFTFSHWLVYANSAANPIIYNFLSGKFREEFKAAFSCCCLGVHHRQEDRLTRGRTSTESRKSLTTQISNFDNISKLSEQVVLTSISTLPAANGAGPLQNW

Structure (SMILES) | EC50 | Emax
CC(=O)N1CCC[C@H](NS(C)(=O)=O)[C@@H]1COC1CCC(F)(c2cccc(F)c2)CC1 (relative stereo) [Example 216, N-(cis-1-acetyl-2-(((4-fluoro-4-(3-fluorophenyl)cyclohexyl)oxy)methyl)piperidin-3-yl)methanesulfonamide] | 0.21 µM | 105%
CCC(=O)N1CCC[C@H](NS(C)(=O)=O)[C@@H]1COC1CCN(c2ccccc2F)CC1 (relative stereo) [Example 219, N-(cis-2-(((1-(2-fluorophenyl)piperidin-4-yl)oxy)methyl)-1-propionylpiperidin-3-yl)methanesulfonamide] | 3 µM | 91%
CS(=O)(=O)N[C@H]1CCCN(C(=O)C2CCC2)[C@H]1COC1CCN(c2ccccc2F)CC1 (relative stereo) [Example 223, N-(cis-1-(cyclobutylcarbonyl)-2-(((1-(2-fluorophenyl)piperidin-4-yl)oxy)methyl)piperidin-3-yl)methanesulfonamide] | 1.1 µM | 110%
CC(C)C(=O)N1CCC[C@H](NS(C)(=O)=O)[C@@H]1COC1CCN(c2ccccc2F)CC1 (relative stereo) [Example 224, N-(cis-2-(((1-(2-fluorophenyl)piperidin-4-yl)oxy)methyl)-1-isobutyrylpiperidin-3-yl)methanesulfonamide] | 1.7 µM | 90%
CS(=O)(=O)N[C@H]1CCCN(C(=O)C2CC2(F)F)[C@H]1COC1CCN(c2ccccc2F)CC1 (relative stereo) [Example 225, N-(cis-1-((2,2-difluorocyclopropyl)carbonyl)-2-(((1-(2-fluorophenyl)piperidin-4-yl)oxy)methyl)piperidin-3-yl)methanesulfonamide] | 1 µM | 98%
CS(=O)(=O)N[C@H]1CCCN(C(=O)CC2CC2)[C@H]1COC1CCN(c2ccccc2F)CC1 (relative stereo) [Example 226, N-(cis-1-(cyclopropylacetyl)-2-(((1-(2-fluorophenyl)piperidin-4-yl)oxy)methyl)piperidin-3-yl)methanesulfonamide] | 2.2 µM | 86%
CCCC(=O)N1CCC[C@H](NS(C)(=O)=O)[C@@H]1COC1CCN(c2ccccc2F)CC1 (relative stereo) [Example 227, N-(cis-1-butyryl-2-(((1-(2-fluorophenyl)piperidin-4-yl)oxy)methyl)piperidin-3-yl)methanesulfonamide] | 2.4 µM | 102%
CCOC(=O)N1CCC[C@H](NS(C)(=O)=O)[C@@H]1COC1CCN(c2ccccc2F)CC1 (relative stereo) [Example 228, ethyl cis-2-(((1-(2-fluorophenyl)piperidin-4-yl)oxy)methyl)-3-((methylsulfonyl)amino)piperidine-1-carboxylate] | 2.1 µM | 89%
CS(=O)(=O)N[C@H]1CCCN(C(=O)C2CCCC2)[C@H]1COC1CCN(c2ccccc2F)CC1 (relative stereo) [Example 229, N-(cis-1-(cyclopentylcarbonyl)-2-(((1-(2-fluorophenyl)piperidin-4-yl)oxy)methyl)piperidin-3-yl)methanesulfonamide] | 1.5 µM | 85%
CC(C)CC(=O)N1CCC[C@H](NS(C)(=O)=O)[C@@H]1COC1CCN(c2ccccc2F)CC1 (relative stereo) [Example 230, N-(cis-2-(((1-(2-fluorophenyl)piperidin-4-yl)oxy)methyl)-1-(3-methylbutanoyl)piperidin-3-yl)methanesulfonamide] | 2.6 µM | 80%
CS(=O)(=O)N[C@H]1CCCN(C(=O)C2CC(=O)C2)[C@H]1COC1CCN(c2ccccc2F)CC1 (relative stereo) [Example 233, N-(cis-2-(((1-(2-fluorophenyl)piperidin-4-yl)oxy)methyl)-1-((3-oxocyclobutyl)carbonyl)piperidin-3-yl)methanesulfonamide] | 5 µM | 83%
CS(=O)(=O)N[C@H]1CCCN(C(=O)C2CCCCC2)[C@H]1COC1CCN(c2ccccc2F)CC1 (relative stereo) [Example 236, N-(cis-1-(cyclohexylcarbonyl)-2-(((1-(2-fluorophenyl)piperidin-4-yl)oxy)methyl)piperidin-3-yl)methanesulfonamide] | 1.8 µM | 86%
CC(C)OC(=O)N1CCC[C@H](NS(C)(=O)=O)[C@@H]1COC1CCN(c2ccccc2F)CC1 (relative stereo) [Example 237, isopropyl cis-2-(((1-(2-fluorophenyl)piperidin-4-yl)oxy)methyl)-3-((methylsulfonyl)amino)piperidine-1-carboxylate] | 0.49 µM | 90%
CS(=O)(=O)N[C@H]1CCCN(C(=O)C2CCC(F)(F)CC2)[C@H]1COC1CCN(c2ccccc2F)CC1 (relative stereo) [Example 238, N-(cis-1-((4,4-difluorocyclohexyl)carbonyl)-2-(((1-(2-fluorophenyl)piperidin-4-yl)oxy)methyl)piperidin-3-yl)methanesulfonamide] | 2.1 µM | 91%
CS(=O)(=O)N[C@H]1CCCN(C(=O)C2CC2)[C@H]1COC1CCN(c2ccccc2)CC1 (relative stereo) [Example 247, N-(cis-1-(cyclopropylcarbonyl)-2-(((1-phenylpiperidin-4-yl)oxy)methyl)piperidin-3-yl)methanesulfonamide] | 0.96 µM | 102%
CCNC(=O)N1CCC[C@H](NS(C)(=O)=O)[C@@H]1CO[C@H]1CC[C@@H](c2ccccc2C(F)(F)F)CC1 (relative stereo) [Example 249, cis-N-ethyl-3-((methylsulfonyl)amino)-2-(((cis-4-(2-(trifluoromethyl)phenyl)cyclohexyl)oxy)methyl)piperidine-1-carboxamide] | 0.00061 µM | 99%
CS(=O)(=O)N[C@H]1CCCN(C(=O)C2CC2)[C@H]1COC1CCC(c2ccccn2)CC1 (relative stereo) [Example 251, N-(cis-1-(cyclopropylcarbonyl)-2-(((4-(pyridin-2-yl)cyclohexyl)oxy)methyl)piperidin-3-yl)methanesulfonamide] | 0.24 µM | 98%
CC(=O)N1CCC[C@H](NS(C)(=O)=O)[C@@H]1CO[C@H]1CC[C@@H](c2cccc(C#N)c2)CC1 (relative stereo) [Example 252, N-(cis-1-acetyl-2-(((cis-4-(3-cyanophenyl)cyclohexyl)oxy)methyl)piperidin-3-yl)methanesulfonamide] | 2.9 µM | 93%
CCNC(=O)N1CCC[C@H](NS(C)(=O)=O)[C@@H]1CO[C@H]1CC[C@@H](c2cccc(C#N)c2)CC1 (relative stereo) [Example 254, cis-2-(((cis-4-(3-cyanophenyl)cyclohexyl)oxy)methyl)-N-ethyl-3-((methylsulfonyl)amino)piperidine-1-carboxamide] | 0.088 µM | 105%
CC(C)OC(=O)N1CCC[C@H](NS(C)(=O)=O)[C@@H]1COC1CCN(c2ncccn2)CC1 (relative stereo) [Example 255, isopropyl cis-3-((methylsulfonyl)amino)-2-(((1-(pyrimidin-2-yl)piperidin-4-yl)oxy)methyl)piperidine-1-carboxylate] | 0.0081 µM | 102%
CS(=O)(=O)N[C@H]1CCCN[C@H]1CO[C@H]1CC[C@@H](c2ccccc2C#N)CC1 (relative stereo) [Example 262, N-(cis-2-(((cis-4-(2-cyanophenyl)cyclohexyl)oxy)methyl)piperidin-3-yl)methanesulfonamide] | 2.5 µM | 94%
CCNC(=O)N1CCC[C@H](NS(C)(=O)=O)[C@@H]1CO[C@H]1CC[C@@H](c2ccccc2C#N)CC1 (relative stereo) [Example 263, cis-2-(((cis-4-(2-cyanophenyl)cyclohexyl)oxy)methyl)-N-ethyl-3-((methylsulfonyl)amino)piperidine-1-carboxamide] | 0.057 µM | 88%
COC(=O)N1CCC[C@H](NS(C)(=O)=O)[C@@H]1CO[C@H]1CC[C@@H](c2ccccc2C#N)CC1 (relative stereo) [Example 265, methyl cis-2-(((cis-4-(2-cyanophenyl)cyclohexyl)oxy)methyl)-3-((methylsulfonyl)amino)piperidine-1-carboxylate] | 2.3 µM | 94%
CCNC(=O)N1CCC[C@H](NS(C)(=O)=O)[C@@H]1CO[C@H]1C[C@@H](Cc2ccccc2)C1 (relative stereo) [Example 266, cis-2-(((cis-3-benzylcyclobutyl)oxy)methyl)-N-ethyl-3-((methylsulfonyl)amino)piperidine-1-carboxamide] | 3.7 µM | 95%
COc1cccc([C@H]2CC[C@@H](OC[C@@H]3NCCC[C@@H]3NS(C)(=O)=O)CC2)c1 (relative stereo) [Example 269, N-(cis-2-(((cis-4-(3-methoxyphenyl)cyclohexyl)oxy)methyl)piperidin-3-yl)methanesulfonamide] | 3 µM | 95%
COC(=O)N1CCC[C@H](NS(C)(=O)=O)[C@@H]1CO[C@H]1CC[C@@H](c2cccc(OC)c2)CC1 (relative stereo) [Example 270, methyl cis-2-(((cis-4-(3-methoxyphenyl)cyclohexyl)oxy)methyl)-3-((methylsulfonyl)amino)piperidine-1-carboxylate] | 0.08 µM | 102%
COc1cccc([C@H]2CC[C@@H](OC[C@H]3[C@@H](NS(C)(=O)=O)CCCN3C(C)=O)CC2)c1 (relative stereo) [Example 271, N-(cis-1-acetyl-2-(((cis-4-(3-methoxyphenyl)cyclohexyl)oxy)methyl)piperidin-3-yl)methanesulfonamide] | 0.65 µM | 104%
CCS(=O)(=O)N[C@H]1CCCN(C(=O)C2CC2)[C@H]1CO[C@H]1CC[C@@H](c2ccccc2)CC1 (relative stereo) [Example 279, N-(cis-1-(cyclopropylcarbonyl)-2-(((cis-4-phenylcyclohexyl)oxy)methyl)piperidin-3-yl)ethanesulfonamide] | 0.0052 µM | 97%
